Legend:
MCF-7 cells = test: Cell cycle analysis by flow cytometry (propidium iodide); type: cell-based, human; settings: for G0/G1 % / G2/M % / S % / Sub-G1 %: mean ± S.E.M.; for accumulation of cells in the G2/M phase (in words): 24 hours; for percent sub-G1 cells compared with noscapine: lower doses (5 μM and 10 μM), 72 hours
Experimental: The flow cytometric evaluation of the cell cycle status was performed as described previously. Briefly, 2×10^6 cells were centrifuged, washed twice with ice-cold PBS, and fixed in 70% ethanol. Tubes containing the cell pellets were stored at 4° C. for at least 24 hours. Cells were then centrifuged at 1000×g for 10 min and the supernatant was discarded. The pellets were washed twice with 5 ml of PBS and then stained with 0.5 ml of propidium iodide (0.1% in 0.6% Triton-X in PBS) and 0.5 ml of RNase A (2 mg/ml) for 45 minutes in dark. Samples were then analyzed on a FACSCalibur flow cytometer (Beckman Coulter Inc., Fullerton, Calif.).
To investigate the precise mechanisms of cell death, the effect of 9-cloro-noscapine and other halogenated noscapine analogs on percent G2/M cells (mitotic index) and percent sub-G1 cells (apoptotic index) was examined as a function of dose and time in MCF-7 cells using fluorescence activated cell sorting (FACS) analysis. The effect of all compounds including noscapine was evaluated at three doses-5 μM, 10 μM and 25 μM for 0, 24, 48 and 72 hours of drug treatment. […] Fluorescently labeled DNA is a good indicator of cell cycle progression and cell death. An unreplicated complement of diploid (2N) DNA cells represents the G1 phase while duplicated tetraploid (4N) DNA cells represent G2 and M phases. Cells in the process of DNA duplication between diploid and tetraploid peaks represent S phase when DNA is being synthesized. Less than diploid DNA appears in populations of dying cells that degrade their DNA to different extents. Treatment of MCF-7 cells with these compounds for 0, 24, 48 and 72 hours led to profound perturbations of the cell cycle profile at 25 μM (FIGS. 3 A-D). […] The distribution of cell population over G0/G1, S, G2/M and sub-G1 phases of the cell cycle for 25 μM concentration is shown in Table 1.

tubulin = settings: literature value [18]; read-out: dissociation constant (Kd) for binding to tubulin; cited from earlier work

| SMILES | G0/G1 % (MCF-7 cells; 25 μM, 0 h) [%] | G2/M % (MCF-7 cells; 25 μM, 0 h) [%] | S % (MCF-7 cells; 25 μM, 0 h) [%] | Sub-G1 % (MCF-7 cells; 25 μM, 0 h) [%] | G0/G1 % (MCF-7 cells; 25 μM, 24 h) [%] | G2/M % (MCF-7 cells; 25 μM, 24 h) [%] | S % (MCF-7 cells; 25 μM, 24 h) [%] | Sub-G1 % (MCF-7 cells; 25 μM, 24 h) [%] | G0/G1 % (MCF-7 cells; 25 μM, 48 h) [%] | G2/M % (MCF-7 cells; 25 μM, 48 h) [%] | S % (MCF-7 cells; 25 μM, 48 h) [%] | Sub-G1 % (MCF-7 cells; 25 μM, 48 h) [%] | G0/G1 % (MCF-7 cells; 25 μM, 72 h) [%] | G2/M % (MCF-7 cells; 25 μM, 72 h) [%] | S % (MCF-7 cells; 25 μM, 72 h) [%] | Sub-G1 % (MCF-7 cells; 25 μM, 72 h) [%] | Kd (tubulin) [µM] | accumulation of cells in the G2/M phase (in words) (MCF-7 cells; 25 μM) | percent sub-G1 cells compared with noscapine (MCF-7 cells) | sub-G1 population compared with noscapine (MCF-7 cells; 25 μM) |
| --- | --- | --- | --- | --- | --- | --- | --- | --- | --- | --- | --- | --- | --- | --- | --- | --- | --- | --- | --- | --- |
| COc1ccc2c(c1OC)C(=O)O[C@@H]2[C@H]1c2c(cc3c(c2OC)OCO3)CCN1C [Nos, (S)-6,7-dimethoxy-3-((R)-4-methoxy-6-methyl-5,6,7,8-tetrahydro[1,3]-dioxolo-[4,5-g]isoquinolin-5-yl)isobenzo-furan-1(3H)-one, reference compound] | 54.8 ± 0.03 | 29.9 ± 2.2 | 13.2 ± 0.2 | 0.2 ± 0.03 | 18.3 ± 3.3 | 50.2 ± 3.6 | 3.4 ± 0.8 | 10.2 ± 1.2 | 19.8 ± 1.9 | 28.07 ± 0.2 | 4.1 ± 0.6 | 36.8 ± 3.7 | 20.5 ± 0.2 | 26.3 ± 0.2 | 7.06 ± 0.2 | 36.9 ± 0.2 | 144 ± 2.8 |  |  |  |
| COc1ccc2c(c1OC)C(=O)O[C@@H]2[C@H]1c2c(c(F)c3c(c2OC)OCO3)CCN1C [9-F-nos] | 67.7 ± 5.6 | 18.5 ± 2.2 | 11.9 ± 1.5 | 0.2 ± 0.04 | 10.8 ± 2.4 | 65.9 ± 4.4 | 3.8 ± 1.1 | 6.8 ± 2.1 | 7.9 ± 2.8 | 43.7 ± 2.9 | 3.5 ± 0.8 | 34.5 ± 2.5 | 5.2 ± 2.2 | 34.4 ± 3.4 | 3.6 ± 1.5 | 48.6 ± 3.3 |  | massive accumulation of cells in the G2/M phase | higher |  |
| COc1ccc2c(c1OC)C(=O)O[C@@H]2[C@H]1c2c(c(Br)c3c(c2OC)OCO3)CCN1C [9-Br-nos] | 53.3 ± 2.8 | 28.9 ± 4.4 | 12.7 ± 1.8 | 0.2 ± 0.1 | 10.4 ± 1.8 | 61.9 ± 3.6 | 3.4 ± 1.2 | 6.9 ± 2.4 | 6.5 ± 2.5 | 43.8 ± 3.4 | 2.8 ± 0.7 | 35.1 ± 3.5 | 4.6 ± 2.1 | 33.7 ± 3.5 | 2.4 ± 1.6 |  |  | massive accumulation of cells in the G2/M phase | higher |  |
| COc1ccc2c(c1OC)C(=O)O[C@@H]2[C@H]1c2c(c(I)c3c(c2OC)OCO3)CCN1C [9-I-nos] | 60.6 ± 4.6 | 23.1 ± 3.7 | 13.9 ± 2.3 | 0.3 ± 0.2 | 17 ± 2.3 | 44.5 ± 5.1 | 3.1 ± 1.3 | 7.7 ± 1.7 | 15.4 ± 4.5 | 25.9 ± 4.1 | 2.9 ± 0.6 | 28.1 ± 3.1 | 17 ± 1.9 | 20.7 ± 2.2 | 4.9 ± 2.2 | 30.1 ± 3.1 |  |  |  | slightly lower |
